Species: Rattus norvegicus
Test: Open TG-GATES - Regimen: Daily Repeat
Type: toxicity, organism-based, Sprague-Dawley
Design: regimen Daily Repeat, gender Male, age 6 weeks
Conditions: in vivo, po, 0 mg/kg, […], route gavage, dose level Control; for KIDNEY_L / KIDNEY_R / KIDNEY_TOTAL: tissue Kidney; for LIVER: tissue Liver; for A/G / ALP / ALT / AST / BUN / CRE / Ca / Cl / DBIL / GLC / IP / K / LDH / Na / PL / RALB / TBIL / TC / TG / TP / gamma-GTP: tissue Plasma

Question: For COC1=CC(=O)C[C@@H](C)[C@]12Oc1c(Cl)c(OC)cc(OC)c1C2=O [GRISEOFULVIN], which Lym (tissue Blood, time 28 day) is on record?
Answer: The Lym was 82.4%.

Question: And the MCH (tissue Blood, time 28 day)?
Answer: The MCH was 19.7 pg.

Question: What about the MCHC (tissue Blood, time 28 day) of the same compound?
Answer: Its MCHC is 34%.

Question: What about the MCV (tissue Blood, time 28 day) of the same compound?
Answer: The MCV was 58 fL.

Question: What about the Mono (tissue Blood, time 28 day) of the same compound?
Answer: Its Mono is 2%.

Question: What about the Neu (tissue Blood, time 28 day) of the same compound?
Answer: Its Neu is 14%.

Question: What about the PT (tissue Blood, time 28 day) of the same compound?
Answer: The PT was 12.3 s.

Question: What about the Plat (tissue Blood, time 28 day) of the same compound?
Answer: Its Plat is 115.6 x10_4/uL.

Question: And the RBC (tissue Blood, time 28 day)?
Answer: Its RBC is 774.2 x10_4/ul.

Question: And the Ret (tissue Blood, time 28 day)?
Answer: The Ret was 2.7%.

Question: What about the WBC (tissue Blood, time 28 day) of the same compound?
Answer: The WBC was 130.8 x10_2/uL.

Question: And the KIDNEY_L (time 7 day)?
Answer: Its KIDNEY_L is 1.1 g.

Question: And the KIDNEY_R (time 7 day)?
Answer: The KIDNEY_R was 1.2 g.

Question: And the KIDNEY_TOTAL (time 7 day)?
Answer: Its KIDNEY_TOTAL is 2.3 g.

Question: What about the KIDNEY_L (time 14 day) of the same compound?
Answer: Its KIDNEY_L is 1.2 g.

Question: What about the KIDNEY_R (time 14 day) of the same compound?
Answer: The KIDNEY_R was 1.2 g.

Question: And the KIDNEY_TOTAL (time 14 day)?
Answer: Its KIDNEY_TOTAL is 2.4 g.

Question: What about the KIDNEY_L (time 28 day) of the same compound?
Answer: The KIDNEY_L was 1.4 g.

Question: What about the KIDNEY_R (time 28 day) of the same compound?
Answer: The KIDNEY_R was 1.4 g.

Question: What about the KIDNEY_TOTAL (time 28 day) of the same compound?
Answer: The KIDNEY_TOTAL was 2.8 g.

Question: And the LIVER (time 7 day)?
Answer: Its LIVER is 12.6 g.

Question: What about the LIVER (time 14 day) of the same compound?
Answer: The LIVER was 13.6 g.

Question: What about the LIVER (time 28 day) of the same compound?
Answer: The LIVER was 16.1 g.

Question: What about the A/G (time 7 day) of the same compound?
Answer: The A/G was 1.6.

Question: What about the ALP (time 7 day) of the same compound?
Answer: The ALP was 944.2 IU/L.

Question: And the ALT (time 7 day)?
Answer: The ALT was 41.2 IU/L.

Question: What about the AST (time 7 day) of the same compound?
Answer: The AST was 81 IU/L.

Question: What about the BUN (time 7 day) of the same compound?
Answer: The BUN was 14.6 mg/dL.

Question: What about the CRE (time 7 day) of the same compound?
Answer: Its CRE is 0.4 mg/dL.

Question: And the Ca (time 7 day)?
Answer: Its Ca is 10.8 mg/dL.

Question: And the Cl (time 7 day)?
Answer: Its Cl is 103.4 meq/L.

Question: And the DBIL (time 7 day)?
Answer: Its DBIL is 0.1 mg/dL.

Question: And the GLC (time 7 day)?
Answer: Its GLC is 206.8 mg/dL.

Question: What about the IP (time 7 day) of the same compound?
Answer: The IP was 7.4 mg/dL.

Question: What about the K (time 7 day) of the same compound?
Answer: Its K is 3.9 meq/L.

Question: And the LDH (time 7 day)?
Answer: Its LDH is 155.4 IU/L.

Question: What about the Na (time 7 day) of the same compound?
Answer: Its Na is 142.2 meq/L.

Question: What about the PL (time 7 day) of the same compound?
Answer: The PL was 146.6 mg/dL.

Question: What about the RALB (time 7 day) of the same compound?
Answer: Its RALB is 3.5 g/dL.

Question: And the TBIL (time 7 day)?
Answer: Its TBIL is 0.2 mg/dL.

Question: And the TC (time 7 day)?
Answer: The TC was 75.8 mg/dL.

Question: And the TG (time 7 day)?
Answer: Its TG is 112.2 mg/dL.

Question: And the TP (time 7 day)?
Answer: Its TP is 5.8 g/dL.

Question: And the gamma-GTP (time 7 day)?
Answer: Its gamma-GTP is 1.2 IU/L.

Question: What about the A/G (time 14 day) of the same compound?
Answer: The A/G was 1.5.

Question: And the ALP (time 14 day)?
Answer: The ALP was 820.2 IU/L.

Question: And the ALT (time 14 day)?
Answer: Its ALT is 32.8 IU/L.

Question: What about the AST (time 14 day) of the same compound?
Answer: Its AST is 55.8 IU/L.

Question: What about the BUN (time 14 day) of the same compound?
Answer: Its BUN is 15 mg/dL.

Question: And the CRE (time 14 day)?
Answer: Its CRE is 0.5 mg/dL.

Question: What about the Ca (time 14 day) of the same compound?
Answer: Its Ca is 10.6 mg/dL.

Question: And the Cl (time 14 day)?
Answer: The Cl was 102.4 meq/L.

Question: And the DBIL (time 14 day)?
Answer: The DBIL was 0.1 mg/dL.

Question: And the GLC (time 14 day)?
Answer: Its GLC is 236 mg/dL.

Question: What about the IP (time 14 day) of the same compound?
Answer: Its IP is 7.3 mg/dL.

Question: What about the K (time 14 day) of the same compound?
Answer: Its K is 4.2 meq/L.

Question: And the LDH (time 14 day)?
Answer: Its LDH is 130.6 IU/L.

Question: What about the Na (time 14 day) of the same compound?
Answer: Its Na is 139.8 meq/L.

Question: And the PL (time 14 day)?
Answer: Its PL is 145.8 mg/dL.

Question: And the RALB (time 14 day)?
Answer: The RALB was 3.5 g/dL.

Question: What about the TBIL (time 14 day) of the same compound?
Answer: The TBIL was 0.2 mg/dL.

Question: And the TC (time 14 day)?
Answer: Its TC is 73.6 mg/dL.

Question: What about the TG (time 14 day) of the same compound?
Answer: The TG was 107.2 mg/dL.

Question: What about the TP (time 14 day) of the same compound?
Answer: The TP was 5.8 g/dL.

Question: What about the gamma-GTP (time 14 day) of the same compound?
Answer: The gamma-GTP was 0.8 IU/L.

Question: And the A/G (time 28 day)?
Answer: The A/G was 1.5.

Question: What about the ALP (time 28 day) of the same compound?
Answer: The ALP was 889.4 IU/L.

Question: What about the ALT (time 28 day) of the same compound?
Answer: Its ALT is 36.4 IU/L.

Question: What about the AST (time 28 day) of the same compound?
Answer: Its AST is 56.8 IU/L.

Question: What about the BUN (time 28 day) of the same compound?
Answer: The BUN was 15.2 mg/dL.

Question: And the CRE (time 28 day)?
Answer: Its CRE is 0.5 mg/dL.

Question: And the Ca (time 28 day)?
Answer: The Ca was 10.5 mg/dL.

Question: And the Cl (time 28 day)?
Answer: Its Cl is 102.8 meq/L.

Question: What about the DBIL (time 28 day) of the same compound?
Answer: The DBIL was 0.078 mg/dL.

Question: And the GLC (time 28 day)?
Answer: Its GLC is 240.2 mg/dL.

Question: What about the IP (time 28 day) of the same compound?
Answer: Its IP is 7.2 mg/dL.

Question: And the K (time 28 day)?
Answer: Its K is 3.6 meq/L.

Question: What about the LDH (time 28 day) of the same compound?
Answer: The LDH was 155.8 IU/L.

Question: What about the Na (time 28 day) of the same compound?
Answer: The Na was 141.2 meq/L.

Question: What about the PL (time 28 day) of the same compound?
Answer: The PL was 132.8 mg/dL.

Question: And the RALB (time 28 day)?
Answer: The RALB was 3.5 g/dL.

Question: And the TBIL (time 28 day)?
Answer: The TBIL was 0.2 mg/dL.

Question: What about the TC (time 28 day) of the same compound?
Answer: Its TC is 72.6 mg/dL.

Question: What about the TG (time 28 day) of the same compound?
Answer: Its TG is 65.4 mg/dL.

Question: What about the TP (time 28 day) of the same compound?
Answer: The TP was 6 g/dL.

Question: What about the gamma-GTP (time 28 day) of the same compound?
Answer: Its gamma-GTP is 1.2 IU/L.

Source: ChEMBL document CHEMBL3885861, “Open TG-GATES”
